Source: patent US20230085263A1, “TASTEFUL NATURAL SWEETENER AND FLAVOR” (EPC Natural Products Co., Ltd., priority 2018, published 2023)
Entries after “also recorded” stand apart in the source; their conditions may differ.

Columns and labels:
[1] = Kinetics of reaction in dependence of pH-conditions: degradation of Phe and Reb-A, Gluc, Xyl, Suc (HPLC/MS); details: KH2PO4 Buffer, 1.0 h, 120° C.; for Degradation: reaction of Phe and Gluc; for % formation from degraded Phe: reaction of Phe and Suc, n.d. = not detected
Description: All samples were analyzed by HPLC/MS using following conditions.
The mobile phase consisted of (A) 0.1% HCOOH (v/v) and (B) AcCN. A gradient of 5% (B) to 15% (B) was applied between 0 min to 15 min. Between 15 and 20 min (B) was increased to 45% which was kept for 5 min. Detection consisted of UV/VIS-DAD (205 nm, 254 nm, 450 nm) coupled to ESI-MS (pos mode, 300° C., TIC from m/z 120-1200, fragmentor 100).
Quantitative Evaluation was Performed Using External Standardization.

[2] = Sensory evaluation of combinations of NHDC, EPCalin (Thaumatin) and Combination of GSGs and SGs in water (Example 234); type: in vivo; details: 4.5 ppm Thaumatin and/or 50 ppm GSGs and SGs
Description: 4.5 ppm Thaumatin (equivalent to 10 ppm EPCalin) were dissolved in water. Increasing amounts of NHDC (1-5 ppm) were added to the solution and the sensory properties were evaluated.
50 ppm (GSGs and SGs) were dissolved in water. Increasing amounts of NHDC (1-5 ppm) were added to the solution and the sensory properties were evaluated.
50 ppm (GSGs and SGs) and 4.5 ppm Thaumatin (equivalent to 10 ppm EPCalin) were dissolved in water. Increasing amounts of NHDC (1-5 ppm) were added to the solution and the sensory properties were evaluated.
Sweetness intensity was rated on 5-point scale

[3] = Stevia-derived MRPs with NHDC and Thaumatin in Red Bull sugarfree (Example 240); type: in vivo; details: 150 μl of sample in 100 ml Redbull sugar free
Description: Stevia-derived MRPs (Reference): 0.67 g xylose, 0.33 g phenylalanine and 4 g Stevia extract TSG95 were dissolved in 2.5 g deionized water. The solution was heated at about 100° C. for 2 h. After the reaction was complete, the slurry was diluted with 25 g water.
(§1) Stevia-derived MRPs by Combination of GSGs and SGs: 0.67 g xylose, 0.33 g phenylalanine, 4 g SGA (Combination of GSGs and SGs) were dissolved in 2.5 g deionized water. The solution was heated at about 100° C. for 2 h. After the reaction was complete, the slurry was diluted with 25 g water.
as §1, with “SGs and NHDC:” for “SGs:”, “SGs) and 3 ppm (=82.5 μg) NHDC” for “SGs)”, “in” for “in 2.5 g deionized”
as §1, with “by SGA (Combination” for “by Combination”, “and SGs), NHDC and Thaumatin:” for “and SGs:”, “and SGs), 3 ppm (=82.5 μg) NHDC and 5 ppm (=302.5 μg EPCalin 45%) Thaumatin” for “and SGs)”
150 μl of the each sample was added to 100 ml Redbull sugar free and mixed. The taste profiles of the samples were compared. […]

[4] = Assay to test reducing power (iron-III reduction test for anti-oxidant potential); type: physicochemical; details: combinations of amino acids and Reb-A, 100° C., 0, 2.5 or 5.0 hours, diluted 1:10
Description: Assay to Test Reducing Power
0.2 M Sodium phosphate buffer, pH=6.6; 500 mg Potassium ferric(III)cyanide/50 mL water, 10% Trichloroacetic acid; 20 mg Iron-III-Chloride/20 mL water; Calibration samples were prepared with Ascorbic acid in a concentration of 0-100 μg/mL 0.2 M Sodium phosphate buffer, pH=6.6 (freshly prepared); as negative control sample water was used.
Samples in aqueous solution were used as such or diluted in 0.2 M Sodium phosphate buffer, pH=6.6.
A 1 mL sample (or calibration standard) was mixed with 1 mL 0.2 M Sodium phosphate buffer, pH=6.6 and 1 mL Potassium ferricyanide solution. The sample was incubated and protected from light at 50° C. for 20 min.
To the solution was added 1 mL Trichloroacetic acid with thorough mixing.
A 1 mL of the mixture was diluted with 1 mL H2O and 0.2 mL Iron-Ill-chloride and reacted for 10 minutes; The absorbance was then determined at 700 nm against H2O.
10 mM of amino acid and/or 10 mM sugar were dissolved in 10 ml 0.1 mM KH2PO4-buffer, pH=7.8. […]
1 ml sample (or calibration standard) solution) was mixed with 0.2 M Sodium phosphate buffer (pH=6.6) and 1 ml Potassium ferric(III)cyanide solution in water (1% w/v) and incubated at 50° C. for 20 minutes. […] The sample was incubated for 10 minutes and absorbance read at 700 nm against a water control. […]
Quantification was performed by linear regression of calibration test results for ascorbic acid. […]

[5] = DPPH radical-scavenging activity (DPPH test for anti-oxidant potential); type: physicochemical; details: combinations of amino acids and Reb-A, 100° C., 0, 2.5 or 5.0 hours, diluted 1:10
Description: Assay to Rest DPPH Radical-Scavenging Activity
1 mg 1,1-Diphenyl-2-picrylhydrazyl radical (DPPH)/ml ethanol, dilution to assay concentration were prepared in ethanol (40 μg/mL); Calibration samples were prepared with Ascorbic acid in a concentration of 0-10 μg/mL; as a negative control sample, water was used.
Samples in aqueous solution were used as such or diluted with water.
A 0.1 ml sample (or calibration standard) was mixed with 3.9 ml solution of DPPH° (100 μMolar) and reacted while protected from light at room temperature for 30 min. Absorbance was determined at 517 nm against ethanol.
10 mM of amino acid and/or 10 mM sugar were dissolved in 10 ml 0.1 mM KH2PO4-buffer, pH=7.8.
The samples were kept at 100° C. in sealed glass vials (Pyrex 15 ml with screw caps) for 0 (before reaction), 2.5 or 5.0 hours. Thereafter the samples were transferred to an ice water bath and cooled down to room temperature. These samples were diluted 1:10 and used for the test assay for anti-oxidant potential. […]
0.2 ml sample (or calibration standard) solution was mixed with 0.2 ml solution of DPPH° (0.1 mM) and 3.6 ml methanol. […] After 3 minutes the absorbance at 517 nm was obtained against ethanol. Quantification was performed by linear regression of calibration test results for ascorbic acid. […]

[6] = Degree of kokumi with thickeners carrageenan, gellan gum, Tamarind gum (Examples 168-170); parameters: species or system people; details: in vivo
Description: Carrageenan was added to pure water to prepare several carrageenan solutions with a concentration gradient as standard solutions for judging the degree of kokumi of the carrageenan solutions. […] Method: For evaluation of the degree of kokumi, the sample solutions (described above) were tested by a panel of four people. […] The tester was allowed to re-taste, and then made judgment. […] Gellan gum was added to pure water to prepare several gellan gum solutions with a concentration gradient as standard solutions for judging the degree of kokumi of the gellan gum solutions. […] Method: For evaluation of the degree of kokumi, the sample solutions (described above) were tested by a panel of four people. […] The tester was allowed to re-taste, and then made judgment. […] Tamarind gum was added to pure water to prepare several Tamarind gum solutions with a concentration gradient as standard solutions for judging the degree of kokumi of the Tamarind gum solutions. […] Method: For evaluation of the degree of kokumi, the sample solutions (described above) were tested by a panel of four people. […] The tester was allowed to re-taste, and then made judgment.

## NC(Cc1ccccc1)C(=O)O (single isomer, unassigned) [Phe]
[1]; pH = 5.5
  Degradation: 2.26
[1]; pH = 7.0
  Degradation: 2.18
[1]; pH = 8.5
  Degradation: 4.24

## OC[C@H]1OC(O)[C@H](O)[C@@H](O)[C@@H]1O (stereo partly shown) [Glu]
[1]; pH = 5.5
  Degradation: 3.65
[1]; pH = 7.0
  Degradation: 4.6
[1]; pH = 8.5
  Degradation: 7.62

## O=C(O)[C@H](Cc1ccccc1)NCC(=O)[C@@H](O)[C@H](O)[C@H](O)CO [MRI (Phe-Glu)]
[1]; pH = 5.5
  % formation from degraded Phe: <0.10%
[1]; pH = 7.0
  % formation from degraded Phe: 0.54%
[1]; pH = 8.5
  % formation from degraded Phe: 0.84%

## COc1ccc(CCC(=O)c2c(O)cc(O[C@@H]3O[C@H](CO)[C@@H](O)[C@H](O)[C@H]3O[C@@H]3O[C@@H](C)[C@H](O)[C@@H](O)[C@H]3O)cc2O)cc1O [NHDC, Neohesperidin dihydrochalcone]
[2]
  sensory properties (sweetness, onset, lingering, mouth-feel): long lasting lingering; also recorded: boosts the lingering
[3]
  taste profile in sugarfree beverage: improved the mouth-feel and harmony of taste impression yielding a substantially improved taste profile

## C=C1C[C@@]23CC[C@H]4[C@@](C)(CCC[C@@]4(C)C(=O)O[C@@H]4O[C@H](CO)[C@@H](O)[C@H](O)[C@H]4O)[C@@H]2CC[C@]1(O[C@@H]1O[C@H](CO)[C@@H](O)[C@H](O[C@@H]2O[C@H](CO)[C@@H](O)[C@H](O)[C@H]2O)[C@H]1O[C@@H]1O[C@H](CO)[C@@H](O)[C@H](O)[C@H]1O)C3 [Reb-A, Rebaudioside A]
[4]
  anti-oxidant properties (active iron-III reduction): substantial anti-oxidant properties
[5]
  anti-oxidant properties (radical scavenging): substantial anti-oxidant properties

## Tamarind gum
[6]
  concentration above which taste like starch paste can be clearly felt: exceeds 1400 ppm

## carrageenan
[6]
  concentration above which taste like starch paste can be clearly felt: exceeds 1000 ppm

## gellan gum
[6]
  concentration above which taste like starch paste can be clearly felt: exceeds 1400 ppm
